What was measured:
ryegrass, Italian [1] = test: Test C postemergence; assay type: in vivo, Lolium multiflorum
Outline: (§1)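 Visual injury ratings on a 0–100 scale (100 = complete control) were made against untreated controls 10 days after treatment in the greenhouse. Compounds, formulated with surfactant in non-phytotoxic solvent, were sprayed on soil preemergence or onto one- to two-leaf plants 2–10 cm tall postemergence.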

pigweed, palmer [2] = test: Test C preemergence; assay type: in vivo, Amaranthus palmeri; settings: preemergence, 0 to 100 scale (0 no effect, 100 complete control)
Outline: as §1

goosegrass [3] = test: Test C preemergence; assay type: in vivo, Eleusine indica; settings: preemergence, 0 to 100 scale (0 no effect, 100 complete control)
Source text: (§2) Seeds of plant species selected from barnyardgrass (Echinochloa crusgalli), blackgrass (Alopecurus myosuroides), corn (Zea mays), foxtail, giant (giant foxtail, Setaria faberi), green foxtail (Setaria viridis), goosegrass (Eleusine indica), kochia (Bassia scoparia), oat, wild (wild oat, Avena fatua), pigweed, palmer (palmer amaranth, palmer pigweed, Amaranthus palmeri), Pigweed, Redroot (redroot pigweed, Amaranthus retroflexus), ragweed (common ragweed, Ambrosia artemisiifolia), ryegrass, Italian ([…] ryegrass, Lolium multiflorum), soybean (Glycine max), and wheat (Triticum aestivum) were planted into a blend of loam soil and sand and treated preemergence with a directed soil spray using test chemicals formulated in a non-phytotoxic solvent mixture which included a surfactant. At the same time, plants selected from these crops and weed species and also galium (catchweed bedstraw, Galium aparine) and horseweed (Erigeron canadensis) were planted in pots containing the same blend of loam soil and sand and treated with postemergence applications of test chemicals formulated in the same manner. Plants ranged in height from 2 to 10 cm and were in the one- to two-leaf stage for the postemergence treatment. Treated plants and untreated controls were maintained in a greenhouse for 10 days, after which time all treated plants were compared to untreated controls and visually evaluated for injury. Plant response ratings, summarized in Table C, are based on a 0 to 100 scale where 0 is no effect and 100 is complete control. A dash (-) response means no test result.

oat, wild [4] = test: Test C preemergence; assay type: in vivo, Avena fatua; settings: preemergence, 0 to 100 scale (0 no effect, 100 complete control)
Outline: as §1

goosegrass [5] = test: Test C postemergence; assay type: in vivo, Eleusine indica; settings: postemergence, 10 days
Source text: as §2

foxtail, giant [6] = test: Test C preemergence; assay type: in vivo, Setaria faberi; settings: 0 to 100 scale (0 no effect, 100 complete control); for Foxtail, Giant plant response rating: preemergence; for Plant response rating, Foxtail, Giant: Preemergence, 1000 g ai/ha, visual rating after 10 days
Outline: as §1

ragweed [7] = test: Test C postemergence; assay type: in vivo, Ambrosia artemisiifolia
Outline: as §1

sedge, umbrella = test: Test D flooded paddy test; assay type: in vivo, Cyperus difformis; settings: 250 g ai/ha, applied to paddy water, visual rating after 13 to 14 days, scale 0 to 100 (0 no effect, 100 complete control)
Outline: (§3)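 At the 2-leaf stage, floodwater 3 cm deep received the test compound; that depth persisted throughout. Plants scored visually 13 to 14 days on, 0 (no effect) to 100 (complete control), dash indicating no result.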

soybean [8] = test: Test C postemergence; assay type: in vivo, Glycine max; settings: postemergence, 10 days
Outline: as §1

soybean [9] = test: Test C preemergence; assay type: in vivo, Glycine max; settings: preemergence, 0 to 100 scale (0 no effect, 100 complete control)
Outline: as §1

ragweed [10] = test: Test C preemergence; assay type: in vivo, Ambrosia artemisiifolia; settings: 0 to 100 scale (0 no effect, 100 complete control); for Ragweed plant response rating: preemergence; for Plant response rating, Ragweed: Preemergence, 1000 g ai/ha, visual rating after 10 days
Outline: as §1

barnyardgrass [11] = test: Test D flooded paddy test; assay type: in vivo, Echinochloa crus-galli; settings: 250 g ai/ha, applied to paddy water, visual rating after 13 to 14 days, scale 0 to 100 (0 no effect, 100 complete control)
Outline: as §3

blackgrass [12] = test: Test C postemergence; assay type: in vivo, Alopecurus myosuroides
Outline: as §1

ryegrass, Italian [13] = test: Test C preemergence; assay type: in vivo, Lolium multiflorum; settings: 0 to 100 scale (0 no effect, 100 complete control); for Ryegrass, Italian plant response rating: preemergence; for Plant response rating, Ryegrass, Italian: Preemergence, 1000 g ai/ha, visual rating after 10 days
Outline: as §1

corn [14] = test: Test C postemergence; assay type: in vivo, Zea mays
Outline: as §1

ducksalad = test: Test D flooded paddy test; assay type: in vivo, Heteranthera limosa; settings: 250 g ai/ha, applied to paddy water, visual rating after 13 to 14 days, scale 0 to 100 (0 no effect, 100 complete control)
Outline: as §3

kochia [15] = test: Test C postemergence; assay type: in vivo, Bassia scoparia
Outline: as §1

kochia [16] = test: Test C preemergence; assay type: in vivo, Bassia scoparia; settings: 0 to 100 scale (0 no effect, 100 complete control); for Kochia plant response rating: preemergence; for Plant response rating, Kochia: Preemergence, 1000 g ai/ha, visual rating after 10 days
Outline: as §1

oat, wild [17] = test: Test C postemergence; assay type: in vivo, Avena fatua; settings: postemergence, 10 days
Outline: as §1

horseweed = test: Test C postemergence; assay type: in vivo, Erigeron canadensis; settings: postemergence, 10 days
Outline: as §1

corn [18] = test: Test C preemergence; assay type: in vivo, Zea mays; settings: preemergence, 0 to 100 scale (0 no effect, 100 complete control)
Outline: as §1

wheat [19] = test: Test C preemergence; assay type: in vivo, Triticum aestivum; settings: preemergence, 0 to 100 scale (0 no effect, 100 complete control)
Outline: as §1

blackgrass [20] = test: Test C preemergence; assay type: in vivo, Alopecurus myosuroides; settings: preemergence, 0 to 100 scale (0 no effect, 100 complete control)
Outline: as §1

wheat [21] = test: Test C postemergence; assay type: in vivo, Triticum aestivum
Outline: as §1

foxtail, giant [22] = test: Test C postemergence; assay type: in vivo, Setaria faberi
Outline: as §1

pigweed, palmer [23] = test: Test C postemergence; assay type: in vivo, Amaranthus palmeri; settings: postemergence, 10 days
Outline: as §1

rice = test: Test D flooded paddy test; assay type: in vivo, Oryza sativa; settings: 250 g ai/ha, applied to paddy water, visual rating after 13 to 14 days, scale 0 to 100 (0 no effect, 100 complete control)
Outline: as §3

galium = test: Test C postemergence; assay type: in vivo, Galium aparine
Outline: as §1

Pigweed, Redroot [24] = test: Test C postemergence; assay type: in vivo, Amaranthus retroflexus; settings: 1000 g ai/ha, 0 to 100 scale, 0 no effect, 100 complete control
Source text: as §2

barnyardgrass [25] = test: Test C preemergence; assay type: in vivo, Echinochloa crusgalli; settings: Preemergence, 1000 g ai/ha; visual rating after 10 days, 0 to 100 scale (0 no effect, 100 complete control)
Outline: as §1

barnyardgrass [26] = test: Test C postemergence; assay type: in vivo, Echinochloa crusgalli; settings: Postemergence, 1000 g ai/ha; 0 to 100 scale, 0 no effect, 100 complete control
Outline: as §1

Pigweed, Redroot [27] = test: Test C preemergence; assay type: in vivo, Amaranthus retroflexus; settings: 1000 g ai/ha, visual rating after 10 days, 0 to 100 scale (0 no effect, 100 complete control)
Source text: as §2

[28] = 125 g ai/ha, postemergence, 10 days, 0 to 100 scale, 0 no effect, 100 complete control
[29] = 500 g ai/ha, postemergence, 10 days, 0 to 100 scale (0 no effect, 100 complete control)
[30] = 125 g ai/ha, 0 to 100 scale, 0 no effect, 100 complete control
[31] = 500 g ai/ha, 0 to 100 scale (0 no effect, 100 complete control)
[32] = Postemergence, 1000 g ai/ha, 0 to 100 scale, 0 no effect, 100 complete control

Cc1cccc2c1O[C@@H](C)CN2C(=O)c1cccc(-n2cnc(C#C[Si](C)(C)C)n2)c1 [Compound 284]
Plant response rating, Ryegrass, Italian (ryegrass, Italian [1]; [28]): 0 | Plant response rating, Ryegrass, Italian (ryegrass, Italian [1]; [29]): 0 | Pigweed, Palmer plant response rating (pigweed, palmer [2]; 500 g ai/ha): 0 | Pigweed, Palmer plant response rating (pigweed, palmer [2]; Test C, 125 g ai/ha): 0 | Goosegrass plant response rating (goosegrass [3]; 500 g ai/ha): 90 | Goosegrass plant response rating (goosegrass [3]; Test C, 125 g ai/ha): 10 | Oat, Wild plant response rating (oat, wild [4]; 500 g ai/ha): 70 | Oat, Wild plant response rating (oat, wild [4]; Test C, 125 g ai/ha): 20 | Plant response rating, Goosegrass (goosegrass [5]; [30]): 10 | Plant response rating, Goosegrass (goosegrass [5]; [31]): 30 | Foxtail, Giant plant response rating (foxtail, giant [6]; 500 g ai/ha): 90 | Foxtail, Giant plant response rating (foxtail, giant [6]; Test C, 125 g ai/ha): 0 | Plant response rating, Ragweed (ragweed [7]; [28]): 0 | Plant response rating, Ragweed (ragweed [7]; [29]): 0 | Plant response rating, Sedge, Umbrella (Flood) (sedge, umbrella): 0 | Plant response rating, Soybean (soybean [8]; [30]): 20 | Plant response rating, Soybean (soybean [8]; [31]): 30 | Soybean plant response rating (soybean [9]; 500 g ai/ha): 0 | Soybean plant response rating (soybean [9]; Test C, 125 g ai/ha): 0 | Ragweed plant response rating (ragweed [10]; 500 g ai/ha): 0 | Ragweed plant response rating (ragweed [10]; Test C, 125 g ai/ha): 0 | Plant response rating, Barnyardgrass (Flood) (barnyardgrass [11]): 0 | Plant response rating, Blackgrass (blackgrass [12]; [28]): 0 | Plant response rating, Blackgrass (blackgrass [12]; [29]): 40 | Ryegrass, Italian plant response rating (ryegrass, Italian [13]; 500 g ai/ha): 90 | Ryegrass, Italian plant response rating (ryegrass, Italian [13]; Test C, 125 g ai/ha): 50 | Plant response rating, Corn (corn [14]; [28]): 0 | Plant response rating, Corn (corn [14]; [29]): 10 | Plant response rating, Ducksalad (Flood) (ducksalad): 65 | Plant response rating, Kochia (kochia [15]; [28]): 10 | Plant response rating, Kochia (kochia [15]; [29]): 50 | Kochia plant response rating (kochia [16]; 500 g ai/ha): 10 | Kochia plant response rating (kochia [16]; Test C, 125 g ai/ha): 0 | Plant response rating, Oat, Wild (oat, wild [17]; [30]): 10 | Plant response rating, Oat, Wild (oat, wild [17]; [31]): 10 | Plant response rating, Horseweed (horseweed; [30]): 0 | Plant response rating, Horseweed (horseweed; [31]): 50 | Corn plant response rating (corn [18]; 500 g ai/ha): 0 | Corn plant response rating (corn [18]; Test C, 125 g ai/ha): 0 | Wheat plant response rating (wheat [19]; 500 g ai/ha): 10 | Wheat plant response rating (wheat [19]; Test C, 125 g ai/ha): 0 | Blackgrass plant response rating (blackgrass [20]; 500 g ai/ha): 60 | Blackgrass plant response rating (blackgrass [20]; Test C, 125 g ai/ha): 0 | Plant response rating, Wheat (wheat [21]; [28]): 10 | Plant response rating, Wheat (wheat [21]; [29]): 10 | Plant response rating, Foxtail, Giant (foxtail, giant [22]; [28]): 10 | Plant response rating, Foxtail, Giant (foxtail, giant [22]; [29]): 20 | Plant response rating, Pigweed, Palmer (pigweed, palmer [23]; [30]): 40 | Plant response rating, Pigweed, Palmer (pigweed, palmer [23]; [31]): 60 | Plant response rating, Rice (Flood) (rice): 0 | Plant response rating, Galium (galium; [28]): 70 | Plant response rating, Galium (galium; [29]): 90

C[C@H]1CN(C(=O)c2cccc(-c3cccnc3)c2)c2cccc(Cl)c2O1 [Compound 200]
Plant response rating, Ryegrass, Italian (ryegrass, Italian [1]; [32]): 0 | Plant response rating, Pigweed, Redroot (Pigweed, Redroot [24]): 20 | Plant response rating, Foxtail, Giant (foxtail, giant [6]): 0 | Plant response rating, Ragweed (ragweed [7]; [32]): 0 | Plant response rating, Barnyardgrass (barnyardgrass [25]): 0 | Plant response rating, Ragweed (ragweed [10]): 0 | Plant response rating, Blackgrass (blackgrass [12]; [32]): 0 | Plant response rating, Ryegrass, Italian (ryegrass, Italian [13]): 0 | Plant response rating, Corn (corn [14]; [32]): 20 | Plant response rating, Barnyardgrass (barnyardgrass [26]): 10 | Plant response rating, Pigweed, Redroot (Pigweed, Redroot [27]): 0 | Plant response rating, Kochia (kochia [15]; [32]): 0 | Plant response rating, Kochia (kochia [16]): 0 | Plant response rating, Wheat (wheat [21]; [32]): 0 | Plant response rating, Foxtail, Giant (foxtail, giant [22]; [32]): 0 | Plant response rating, Galium (galium; [32]): 30

O=C(c1cccc(-n2cncn2)c1)N1CC2(CC2)Oc2ccccc21 [Compound 201]
Plant response rating, Ryegrass, Italian (ryegrass, Italian [1]; [32]): 0 | Plant response rating, Pigweed, Redroot (Pigweed, Redroot [24]): 0 | Plant response rating, Foxtail, Giant (foxtail, giant [6]): 10 | Plant response rating, Ragweed (ragweed [7]; [32]): 0 | Plant response rating, Barnyardgrass (barnyardgrass [25]): 0 | Plant response rating, Ragweed (ragweed [10]): 0 | pest or weed control at 1000 g/ha (blackgrass [12]; Alopecurus myosuroides, post-emergence, 240 h, Postemergence, 1000 g ai/ha, 0 to 100 scale, 0 no effect, 100 complete control, read-out: Plant response rating, Blackgrass): 0% | Plant response rating, Ryegrass, Italian (ryegrass, Italian [13]): 0 | Corn plant response rating (crop injury, 0 = no effect, 100 = complete kill) at 1000 g/ha (corn [14]; Zea mays, post-emergence, 240 h, Postemergence, 1000 g ai/ha, 0 to 100 scale, 0 no effect, 100 complete control): 0% | Plant response rating, Barnyardgrass (barnyardgrass [26]): 10 | Plant response rating, Kochia (kochia [15]; [32]): 10 | Plant response rating, Kochia (kochia [16]): 0 | Plant response rating, Wheat (wheat [21]; [32]): 0 | Plant response rating, Foxtail, Giant (foxtail, giant [22]; [32]): 10 | Plant response rating, Galium (galium; [32]): 40

Reference: patent US20260262643A1, “HERBICIDAL BENZOXAZINES” (FMC CORPORATION, priority 2022, published 2026)
